Test [1] has as its target T1, α1B Human Adrenergic Receptor (Homo sapiens, UniProt P35368).
T1 construct: The entire coding region of α1B (1563 bp); expressed in transfected cells
T1 sequence (P35368 1-520): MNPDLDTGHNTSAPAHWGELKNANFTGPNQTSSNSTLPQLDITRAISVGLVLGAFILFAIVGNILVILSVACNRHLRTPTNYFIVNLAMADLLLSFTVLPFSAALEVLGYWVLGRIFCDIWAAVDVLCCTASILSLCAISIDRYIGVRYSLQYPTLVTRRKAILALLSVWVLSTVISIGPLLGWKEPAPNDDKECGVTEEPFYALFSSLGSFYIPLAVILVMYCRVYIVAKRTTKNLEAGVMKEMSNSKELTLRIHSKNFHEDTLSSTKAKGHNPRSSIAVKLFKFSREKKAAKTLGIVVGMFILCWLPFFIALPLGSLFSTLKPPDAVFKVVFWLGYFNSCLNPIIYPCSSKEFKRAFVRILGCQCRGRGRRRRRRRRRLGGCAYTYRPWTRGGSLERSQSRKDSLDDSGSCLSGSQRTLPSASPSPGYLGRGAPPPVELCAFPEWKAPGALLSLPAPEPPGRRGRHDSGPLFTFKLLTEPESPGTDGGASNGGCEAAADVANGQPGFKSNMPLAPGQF
Description: Radioligand binding, [3H]prazosin, cloned human α1B adrenergic receptor. In outline:
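[3H]prazosin (0.5 nM) binding was run for 20 min at 37° C in pH 7.5 Tris/MgCl2/ascorbate buffer on membranes of LM(tk−) cells stably expressing the cloned receptor. Filtration through GF/B ended the reaction; 10 μM phentolamine gave nonspecific binding.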

In the next test the target is T2, α2B receptor (Homo sapiens, UniProt P18089).
T2 construct: host or cells: LM(tk-) cells, line L-NGC-α2B
T2 sequence (P18089 1-450): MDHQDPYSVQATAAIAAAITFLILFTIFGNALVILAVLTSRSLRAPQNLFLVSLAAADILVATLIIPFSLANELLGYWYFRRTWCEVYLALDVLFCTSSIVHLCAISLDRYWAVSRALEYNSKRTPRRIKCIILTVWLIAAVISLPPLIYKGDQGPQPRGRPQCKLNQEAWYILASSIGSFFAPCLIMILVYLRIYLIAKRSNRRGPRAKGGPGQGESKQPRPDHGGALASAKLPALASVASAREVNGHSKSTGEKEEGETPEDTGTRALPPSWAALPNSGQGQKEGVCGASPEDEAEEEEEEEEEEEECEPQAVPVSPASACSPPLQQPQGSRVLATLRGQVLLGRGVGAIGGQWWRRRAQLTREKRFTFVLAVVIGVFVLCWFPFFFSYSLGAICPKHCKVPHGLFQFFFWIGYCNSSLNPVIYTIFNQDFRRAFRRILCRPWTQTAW
Description: Competition binding, [3H]rauwolscine, human α2B receptor. In outline:
(§1)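 Lysates of LM(tk−) cells stably expressing human α2A, α2B or α2C receptors in 25 mM glycylglycine pH 7.6. Equilibrium competition against 0.5 nM [3H]rauwolscine, with 10 μM phentolamine defining nonspecific binding. Bound ligand separated by GF/B filtration.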

For the next test, the target named is T3, α2C receptor (Homo sapiens, UniProt P18825).
T3 construct: host or cells: LM(tk-) cells, line L-α2C
T3 sequence (P18825 1-462): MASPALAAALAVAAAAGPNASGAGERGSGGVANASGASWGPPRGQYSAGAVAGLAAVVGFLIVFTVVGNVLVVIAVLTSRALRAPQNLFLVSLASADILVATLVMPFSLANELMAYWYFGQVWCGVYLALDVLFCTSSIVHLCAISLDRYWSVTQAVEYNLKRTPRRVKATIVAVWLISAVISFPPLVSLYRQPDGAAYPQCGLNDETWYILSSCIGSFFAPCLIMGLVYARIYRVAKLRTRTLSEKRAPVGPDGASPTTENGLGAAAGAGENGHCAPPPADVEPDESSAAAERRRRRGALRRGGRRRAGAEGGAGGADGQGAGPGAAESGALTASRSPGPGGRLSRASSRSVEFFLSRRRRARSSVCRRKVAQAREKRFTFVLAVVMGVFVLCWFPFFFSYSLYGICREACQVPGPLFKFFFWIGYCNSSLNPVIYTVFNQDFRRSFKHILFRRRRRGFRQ
Description: Competition binding, [3H]rauwolscine, human α2C receptor. In outline:
as §1

The next test concerns the target T4, α2A receptor (Homo sapiens, UniProt P08913).
T4 construct: host or cells: LM(tk-) cells, line L-α2A
T4 sequence (P08913 1-465): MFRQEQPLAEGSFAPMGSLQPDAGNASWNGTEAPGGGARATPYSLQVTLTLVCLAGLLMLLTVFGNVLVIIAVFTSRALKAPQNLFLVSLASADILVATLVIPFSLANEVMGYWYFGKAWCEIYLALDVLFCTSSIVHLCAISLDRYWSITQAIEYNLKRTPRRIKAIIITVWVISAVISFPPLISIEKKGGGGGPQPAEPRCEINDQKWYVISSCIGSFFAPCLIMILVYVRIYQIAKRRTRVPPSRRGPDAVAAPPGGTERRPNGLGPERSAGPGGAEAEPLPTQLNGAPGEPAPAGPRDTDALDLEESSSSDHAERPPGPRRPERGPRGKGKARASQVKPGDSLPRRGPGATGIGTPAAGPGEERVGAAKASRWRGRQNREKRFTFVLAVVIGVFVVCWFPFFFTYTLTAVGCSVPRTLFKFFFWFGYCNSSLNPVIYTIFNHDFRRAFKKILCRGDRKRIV
The test is described as follows: Competition binding, [3H]rauwolscine, human α2A receptor. In outline: as §1

Where [2] appears, read: cloned human receptor, LM(tk-) cell membranes, mean, read-out: PKi alpha-1 1b (converted).
Setting [3] is: cloned human receptor in LM(tk-) cell membranes, SEM and n in lines below, read-out: pKi alpha-1 1b (converted).
The mark [4] stands for this setting: [3H]rauwolscine, LM(tk-) cell line L-NGC-α2B, SEM and n in lines below, read-out: pKi alpha-2 2b (converted).
Setting [5] is: [3H]rauwolscine, LM(tk-) cell line L-α2C, SEM and n in lines below, read-out: pKi alpha-2 2c (converted).
Where [6] appears, read: [3H]rauwolscine, LM(tk-) cell line L-α2A, SEM and n in lines below, read-out: pKi alpha-2 2a (converted).
[7] abbreviates: cloned human receptor in LM(tk-) cell membranes, SEM and n in lines below.
[8] abbreviates: [3H]rauwolscine, human receptor, LM(tk-) cell lysates, mean, read-out: PKi alpha-2 2b (converted).
Setting [9] is: [3H]rauwolscine, human receptor, LM(tk-) cell lysates, mean, read-out: PKi alpha-2 2c (converted).
[10] abbreviates: [3H]rauwolscine, human receptor, LM(tk-) cell lysates, mean, read-out: PKi alpha-2 2a (converted).

Where a name gives a salt, the structure may show the parent alone. Read-outs that look alike come from different tables or passages of the source.

The results in this text go back to US6608086B2, “Dihydropyridines and new uses thereof” (Synaptic Pharmaceutical Corporation, priority 1993, dated 2003).

Consider `CCNC(=O)C1=C(CC)NC(COCCN)=C(C(=O)NCCCN2CCC(C(=O)OC)(c3ccccc3)CC2)C1c1ccc([N+](=O)[O-])cc1` (stereo not shown) [Example 233, 2-((2-Aminoethyl)oxy)methyl-6-ethyl-5-N-ethylcarboxamido-1,4-dihydro-3-(N-(3-(4-methoxycarbonyl-4-phenylpiperidin-1-yl)propyl))carboxamido-4-(4-nitro)phenylpyridine], for which the Ki in test [1] (setting [2]) is 1.62 µM; at α2B receptor (PKi alpha-2 2b) it was 8.71 µM; at α2C receptor (PKi alpha-2 2c) it was 1.66 µM; on α2A receptor, 4.79 µM.

With `COC(=O)C1=C(C)NC(c2ccoc2)=C(C(=O)NCCCN2CCC(c3ccccc3)CC2)C1c1ccc([N+](=O)[O-])cc1` (stereo not shown) [Example 65, 2-(Furan-3-yl)-1,4-dihydro-5-methoxycarbonyl-6-methyl-4-(4-nitrophenyl)-5-{N-[3-(4-phenylpiperidin-1-yl)propyl]}carboxamidopyridine hydrochloride hydrate], the Ki is 0.0575 µM in test [1] (setting [3]), 0.0977 µM on α2B receptor (setting [4]), 0.0832 µM on α2C receptor (setting [5]) and 0.2 µM at α2A receptor (setting [6]).

With `CC(=O)C1=C(C)NC(COCCN)=C(C(=O)NCCCN2CCC(c3ccccc3)(c3ccccc3)CC2)C1c1ccc(F)cc1` (stereo not shown) [Example 242, 5-Acetyl-2-((2-aminoethyl)oxy)methyl-4-(4-fluoro)phenyl-1,4-dihydro-6-methyl-3-(N-(3-(4,4-diphenylpiperidin-1-yl)propyl))carboxamidopyridine], the Ki is 0.0832 µM in test [1] (PKi alpha-1 1b, cloned human α1B receptor, LM(tk-) cell membranes); 0.933 µM on α2B receptor (PKi alpha-2 2b, [3H]rauwolscine, human α2B receptor, LM(tk-) cells); 0.257 µM on α2C receptor (PKi alpha-2 2c, [3H]rauwolscine, human α2C receptor, LM(tk-) cells); 1.41 µM on α2A receptor ([3H]rauwolscine, human α2A receptor, LM(tk-) cells, read-out: PKi alpha-2 2a (converted)).

On to `CCC1=C(C(=O)NCCCCN2CCC(c3ccccc3)CC2)C(c2ccc([N+](=O)[O-])cc2)C(C(N)=O)=C(C)N1.Cl.O` (stereo not shown) [Example 77, 5-Carboxamido-2-ethyl-1,4-dihydro-6-methyl-4-(4-nitro)phenyl-3-(N-(4-(4-phenylpiperidin-1-yl)butyl))carboxamidopyridine hydrochloride hydrate], for which the “pKi alpha-1 1b” value in test [1] (setting [7]) is on record as 7.16. The “pKi alpha-2 2b” value at α2B receptor ([3H]rauwolscine, LM(tk-) cell line L-NGC-α2B, SEM and n in lines below) came out at 7.08. Moreover, at α2C receptor ([3H]rauwolscine, LM(tk-) cell line L-α2C, SEM and n in lines below), the “pKi alpha-2 2c” value is 7.42. Besides, the “pKi alpha-2 2a” value on α2A receptor ([3H]rauwolscine, LM(tk-) cell line L-α2A, SEM and n in lines below) is reported as 6.95.

On to `CCC1=C(C(N)=O)C(c2ccc([N+](=O)[O-])cc2)C(C(=O)NCCCN2CCC(C(=O)OC)(c3ccccc3)CC2)=C(CCCCN)N1` (stereo not shown) [Example 166, 2-(4-Aminobutyl)-5-carboxamido-6-ethyl-1,4-dihydro-3-{N-[3-(4-methoxycarbonyl-4-phenylpiperidin-1-yl)propyl]}carboxamido-4-(4-nitrophenyl)pyridine], for which the Ki is 1.32 µM in test [1] (setting [2]), 3.89 µM on α2B receptor (setting [8]), 1.02 µM on α2C receptor (setting [9]) and 1.86 µM at α2A receptor (setting [10]).

As for `CCC1=C(C(N)=O)C(c2ccc([N+](=O)[O-])cc2)C(C(=O)NC2CCN(CCc3c[nH]c4ccccc34)CC2)=CN1CC` (stereo not shown) [Example 122, 5-Carboxamido-1,4-dihydro-3-(N-{1-[2-(3-indolyl)ethyl]piperidin-4-yl}) carboxamido-1,6-diethyl-4-(4-nitrophenyl)pyridine], in test [1] (cloned human α1B receptor, LM(tk−) cell membranes), the “pKi alpha-1 1b” value is given as 7.57. Further, at α2B receptor ([3H]rauwolscine, human α2B receptor, LM(tk−) cells), the “pKi alpha-2 2b” value is reported as 7.35. Also, the “pKi alpha-2 2c” value at α2C receptor ([3H]rauwolscine, human α2C receptor, LM(tk−) cells) is listed as 6.53. Also, at α2A receptor ([3H]rauwolscine, human α2A receptor, LM(tk−) cells), the “pKi alpha-2 2a” value turned out to be 6.38.

As for `COC(=O)C1=C(C)NC(C)=C(C(=O)OCCCN2CCC(c3ccccc3)CC2)C1c1ccc([N+](=O)[O-])cc1` (stereo not shown) [Example 48, 1,4-Dihydro-5-methazycarbonyl-2,6-dimethyl-4-(4-nitrophenyl)-3-[3-(4-phenylpiperidin-1-yl)propoxy]}carbonylpyridine hydrochloride hydrate], the Ki in test [1] (setting [3]) is 0.00263 µM; at α2B receptor (setting [4]), 0.813 µM; on α2C receptor (setting [5]) it was 0.417 µM; on α2A receptor (setting [6]), 0.0174 µM.

Turning to `CC(=O)C1=C(C)NC(CCCCN)=C(C(=O)NCCCN2CCC(c3ccccc3)(c3ccccc3)CC2)C1c1ccc([N+](=O)[O-])cc1` (stereo not shown) [Example 176, 5-Acetyl-2-(4-aminobutyl)-1,4-dihydro-6-methyl-4-(4-nitrophenyl)-3-{N-[3-(4,4-diphenylpiperidin-1-yl)propyl]}carboxamidopyridine], the Ki in test [1] (PKi alpha-1 1b, cloned human receptor, LM(tk-) cell membranes, mean) was 0.158 µM; on α2B receptor (PKi alpha-2 2b, [3H]rauwolscine, human receptor, LM(tk-) cell lysates, mean), 1.2 µM; at α2C receptor (setting [9]), 0.724 µM; on α2A receptor (setting [10]), 0.977 µM.

As to `CNC(=O)C1=C(C)NC(C)=C(C(=O)NCCCN2CCC(c3ccccc3)(c3ccccc3)CC2)C1c1ccc([N+](=O)[O-])cc1` (stereo not shown) [Example 38, 1,4-Dihydro-2,6-dimethyl-5-(N-methyl)carboxamido-4-(4-nitrophenyl)-3-{N-[3-(4,4-diphenylpiperidin-1-yl)propyl]}carboxamidopyridine], the “pKi alpha-1 1b” value in test [1] (setting [7]) is reported as 6.38. Besides, the “pKi alpha-2 2b” value at α2B receptor turned out to be 6.04. Further, on α2C receptor, the “pKi alpha-2 2c” value is recorded as 6.49. The “pKi alpha-2 2a” value at α2A receptor is 6.40.

With `COC(=O)C1(c2ccccc2)CCN(CCCNC(=O)C2=C(CCCCN)NC(C)=C(C(C)=O)C2c2ccc([N+](=O)[O-])cc2)CC1` (stereo not shown) [Example 178, 5-Acetyl-2-(4-aminobutyl)-1,4-dihydro-3-{N-[3-(4-methoxycarbonyl-4-phenylpiperidin-1-yl)propyl]}carboxamido-6-methyl-4-(4-nitrophenyl) pyridine], the Ki in test [1] (setting [2]) was 0.417 µM; on α2B receptor (setting [8]), 0.759 µM; on α2C receptor (setting [9]), 0.398 µM; on α2A receptor (setting [10]) it was 0.912 µM.
